Source: article PMC7689923 (ACS Omega, 2020)
≈ marks a conversion by molar mass, not a printed value. Where “and” joins values, the source holds several entries; their conditions need not be identical. Equal values may be shown once.

Assays:
KasA [1] = target: T1, KasA (Mycobacterium tuberculosis, UniProt P9WQD9); assay: Thermal shift experiments using nanoDSF; type: binding
T1 sequence (P9WQD9 1-416): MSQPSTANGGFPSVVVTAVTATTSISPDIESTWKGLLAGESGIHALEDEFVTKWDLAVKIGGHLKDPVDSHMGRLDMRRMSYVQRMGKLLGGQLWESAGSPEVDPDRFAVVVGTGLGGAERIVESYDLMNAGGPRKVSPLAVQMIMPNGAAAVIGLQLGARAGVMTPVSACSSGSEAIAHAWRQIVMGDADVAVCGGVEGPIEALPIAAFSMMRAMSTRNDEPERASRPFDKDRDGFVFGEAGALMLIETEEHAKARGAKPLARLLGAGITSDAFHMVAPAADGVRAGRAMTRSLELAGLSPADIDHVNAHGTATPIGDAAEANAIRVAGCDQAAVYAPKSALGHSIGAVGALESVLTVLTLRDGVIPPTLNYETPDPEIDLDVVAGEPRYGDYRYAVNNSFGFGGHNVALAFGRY

KasA [2] = target: T1, KasA; assay: biochemical; type: binding; settings: for KasA binding via MST (in words): at the concentrations tested
KasA [3] = target: T1, KasA; settings: binder of KasA; cited from earlier work
Mtb = settings: cited from earlier work

| Structure (SMILES) | change in Tm (in words) (KasA [1]) | Kd (KasA [2]) | KasA binding via MST (in words) (KasA [2]) | EC50 (KasA [3]) | minimum inhibitor concentration (MIC) (Mtb) | MIC (Mtb; Mtb inhibitor) |
| --- | --- | --- | --- | --- | --- | --- |
| CCCNC(=O)NS(=O)(=O)c1ccc(Cl)cc1 [Chlorpropamide] | did not show significant changes in Tm | 90.6 µM and > 90 µM | showed binding to KasA |  |  |  |
| CCCCS(=O)(=O)Nc1ccc2cnn(C)c2c1 [DG167] |  |  |  | 0.131 ± 0.0182 µM | 0.39 M |  |
| COC(=O)Nc1nc2cc(C(=O)c3ccc(F)cc3)ccc2[nH]1 [Flubendazole, flubendazole] | did not show significant changes in Tm | 38.5 µM and 30 to 40 µM | showed binding to KasA |  |  |  |
| CC[C@H](C)C(=O)O[C@H]1C[C@@H](C)C=C2C=C[C@H](C)[C@H](CC[C@@H]3C[C@@H](O)CC(=O)O3)[C@H]21 [Lovastatin, lovastatin] | did not show significant changes in Tm | 224 µM and > 90 µM | showed binding to KasA |  |  |  |
| CCCc1nn(C)c2c(=O)[nH]c(-c3cc(S(=O)(=O)N4CCN(C)CC4)ccc3OCC)nc12 [Sildenafil, sildenafil] |  | 32.5 µM and 30 to 40 µM |  |  |  |  |
| Oc1cc(Cl)ccc1Oc1ccc(Cl)cc1Cl [Triclosan, triclosan] |  |  |  |  |  | 12.5 µM (≈ 3.62 µg/mL) |
